The values that follow come from article PMC6938345, “Inhibition of complement activation, myeloperoxidase, NET formation and oxidant activity by PIC1 peptide variants” (PLoS ONE, 2019).

Where a SMILES comes first, the peptide text is derived from it. [ ]: non-standard residue; d: D form. Sar = CNCC(=O)O

The nature of the series: Peptide solubility in water. On the procedure:
(PA) (Table 1) were synthesized by New England Peptide (Gardner, MA) to >90% purity. Sarcosine variants and PEG were dissolved in water and the pH was adjusted with NaOH. PA was dissolved in DMSO and then brought up to the final concentration with water resulting in 30% DMSO and pH adjusted. Antibody sensitized sheep erythrocytes (EA), purified C1q and factor B-depleted human sera were purchased from Complement Technology (Tyler, TX). Purified myeloperoxidase was purchased from Lee BioSolutions (Maryland Heights, MO) and tetramethylbenzidine (TMB) and PicoGreen were purchased from Thermo Fisher (Waltham MA).
(PA), peptide derivatives were synthesized with sarcosine residues substituted at all 15 positions, included a peptide in which the vicinal cysteines at positions 9 and 10 (C9,C10) were replaced with a single sarcosine residue (Table 1).

Turning to `CC[C@H](C)[C@H](N)C(=O)N[C@@H](C)C(=O)N[C@@H](CC(C)C)C(=O)N[C@H](C(=O)N[C@@H](CC(C)C)C(=O)N[C@@H](CCC(=O)O)C(=O)N1CCC[C@H]1C(=O)N[C@H](C(=O)N(C)CC(=O)N[C@@H](CCC(N)=O)C(=O)N[C@@H](CCC(=O)O)C(=O)N[C@@H](CCCNC(=N)N)C(=O)N[C@@H](C)C(=O)N[C@@H](C)C(=O)O)[C@@H](C)CC)[C@@H](C)CC` [C9,10] (H-IALILEPI[Sar]QERAA-OH), the “solubility in water (in words)” value is “soluble in water”.
